Measured values published in patent publication US10322143B2, “Inhibitors of ADAMTS4 or ADAMTS5 for use in preventing or treating cardiac remodeling and chronic heart failure” (Universitetet i Oslo, priority 2013, dated 2019).

Tests used:
[1] = test system: TIMP-3 mRNA; test: TIMP-3 mRNA level (qRT-PCR) in MI rats; type: in vivo, rat; conditions: PPS-treatment
Protocol: At day 0 to 3 (median 2) after surgery, infarct size was quantified by echocardiography using the Vevo2100 system (Visualsonics Inc, Canada) and magnetic resonance imaging (MRi) using a 9.4 T/210 mm/ASR horizontal bore magnet (Agilent Technologies, Inc., USA). Initially, echocardiography was performed to select moderate to large infarcts ranging approximately 40 to 50%. Thereafter, infarct sizes were exactly measured by late-enhancement gadolinium MRi analyses (Bohl S., et al. American Journal of Physiology, 2009; 296 (4): H1200-H1208) and stratified into small infarcts (stratum 1: <43%, stratum 2: 43-48%), and large infarcts (stratum 3: 48-53%, stratum 4: >53%). The rats in each MI stratum and sham group were randomized to receive intervention or control treatment. The intervention group was treated with 6 mg/kg of sodium PPS (Interfarm AS, Norway), while the control group received vehicle (0.9% NaCl), both injected subcutaneously every third day starting from post-operative day 8-10.
The mRNA levels of the ADAMTS versicanases ADAMTS1, -4, -5, -8, and -20 (Shiomi T, et al. Pathology International 2010; 60(7):477-96), versican, aggrecan, syndecan-4, tissue inhibitor metalloprotease (TIMP)-3, and membrane-type (MT)4-MMP, were quantified in rat left ventricle by qRT-PCR, as previously described in Example 1.

[2] = test system: aortic banding rats; test: Aortic banding rat model: echocardiography and organ weights after PPS-treatment; type: in vivo; conditions: for Aorta / FS (fractional shortening) / Heart wt / IVSd (interventricular septal thickness at diastole) / LAD (left atrial diameter) / LV wt / LVDd (left ventricular diameter at diastole) / LVDs (left ventricular diameter at systole) / Lung wt / PWd (posterior wall thickness at diastole) / RV wt / Tissue Doppler Maximal velocity / Tissue Doppler Minimal velocity / HR (heart rate): PPS 6 mg/kg s.c. every third day, mean ± SEM; for HR (heart rate): in bpm (unit assumed)
Excerpt: The experimental procedures conformed to the European Convention for the Protection of Vertebrate Animals Used for Experimental and Other Scientific Purposes, and the protocols were approved by the Norwegian Council for Animal Research. Male Wistar rats weighing 160-170 g underwent AB essentially as described previously (Lunde et al. Physiol Genomics 2011. 44(2):162-72). Briefly, the ascending aorta was dissected free through a right hemithoracotomy, and ligated (3-0 silk) against a steel wire. The sham-operated rats (sham) were subjected to the same surgical procedure with a loose suture around the aorta. In all surgical procedures performed, a mixture of 67% N2O, 28% O2, and 4% isoflurane in an anaesthesia chamber was used for preoperative sedation. To maintain anaesthesia preoperatively, a mixture of 69% N2O, 29% O2, and 2% isoflurane was given by the endotracheal tube and the animals were ventilated on a respirator (Zoovent, Triumph Technical Services, Milton Keynes, UK). Buprenorphine was given as postoperative analgesia after AB.
In vivo heart function was evaluated using the Vevo2100 system (Visualsonics Inc, Canada) as previously described (Sjaastad et al. J Appl Physiol 2000; 89:1445-54). Thereafter, the heart was excised under deep anaesthesia, washed in saline and blotted dry to remove blood in the cardiac chambers. The heart chambers were separated by rapid dissection, before being snap-frozen in liquid nitrogen and stored at −70° C. until further analyses. For AB rats not receiving PPS- or vehicle treatment, selection into heart failure (ABHF) or hypertrophy (ABHT) groups was based on echocardiographic and postmortem analysis, as follows: Inclusion criteria for ABHF group were increased lung weight (>2.5 g), increased posterior wall diameter in diastole (PWDd) (>2.0 mm) and increased left atrial diameter (>5.0 mm), while criteria for inclusion in the ABHT group were increased PWDd (>2.0 mm), increased left ventricular weight (>0.75 g) and preserved lung weight (<2.0 g).
Three days after AB, rats were stratified by the gradient over the stenosis to ensure similar degree of cardiac stress. Two and two stratified rats were randomized to either 6 mg/kg of the sulfated polysaccharide sodium pentosan polysulfate (PPS) (Interfarm AS, Norway) or vehicle (0.9% NaCl) injected subcutaneously every third day. […] Six weeks after AB or sham operation, the rats were examined by echocardiography and postmortem analysis, performed by experienced investigators (IS, JMA) blinded to treatment group.

[3] = PPS-treated vs vehicle-treated AB-rats
[4] = aortic banding rats, six weeks after AB

In the case of pentosan polysulfate [PPS], the TIMP-3 level [1] is reported as “did not change”, the “side effects including haemorrhage” value ([2]; AB rats, 6 mg/kg s.c. every third day, observed at daily basis) is reported as “no side effects” and the “lung weight compared to vehicle” value ([2]; PPS-treated AB-rats) is reported as “tendency towards lower”. For the same substance, the “higher fractional shortening compared to vehicle-treated AB-rats” value [2, 3] was 23%, the “left ventricular diameter in systole as part of the diameter in vehicle-treated AB-rats” value [2, 3] was “three quarters” and the Aorta [2, 4] was 2.56 ± 0.03 mm. The “FS (fractional shortening)” value [2, 4] was 59.2 ± 1.5%, the Heart wt [2, 4] was 1.87 ± 0.09 g and the “IVSd (interventricular septal thickness at diastole)” value [2, 4] was 2.11 ± 0.06 mm. The “LAD (left atrial diameter)” value [2, 4] was 4.18 ± 0.14 mm, the LV wt [2, 4] was 0.95 ± 0.07 g and the “LVDd (left ventricular diameter at diastole)” value [2, 4] was 6.53 ± 0.13 mm. The “LVDs (left ventricular diameter at systole)” value [2, 4] was 2.67 ± 0.12 mm, the Lung wt [2, 4] was 1.64 ± 0.08 g and the “PWd (posterior wall thickness at diastole)” value [2, 4] was 2.13 ± 0.06 mm. For the same substance, the RV wt [2, 4] was 0.18 ± 0.01 g, the “Tissue Doppler Maximal velocity” value [2, 4] was 50.70 ± 2.94 and the “Tissue Doppler Minimal velocity” value [2, 4] was 59.06 ± 3.26. For the same substance, the “HR (heart rate)” value [2, 4] was 420 ± 6, the Aorta ([2]; sham-operated rats, six weeks) was 2.63 ± 0.04 mm and the “FS (fractional shortening)” value ([2]; sham-operated rats, six weeks) was 53.6 ± 5.8%. For the same substance, the Heart wt ([2]; sham-operated rats, six weeks) was 1.19 ± 0.11 g, the “IVSd (interventricular septal thickness at diastole)” value ([2]; sham-operated rats, six weeks) was 1.56 ± 0.04 mm and the “LAD (left atrial diameter)” value ([2]; sham-operated rats, six weeks) was 3.68 ± 0.14 mm. For the same substance, the LV wt ([2]; sham-operated rats, six weeks) was 0.70 ± 0.03 g, the “LVDd (left ventricular diameter at diastole)” value ([2]; sham-operated rats, six weeks) was 6.89 ± 0.10 mm and the “LVDs (left ventricular diameter at systole)” value ([2]; sham-operated rats, six weeks) was 3.20 ± 0.41 mm. For the same substance, the Lung wt ([2]; sham-operated rats, six weeks) was 1.41 ± 0.03 g, the “PWd (posterior wall thickness at diastole)” value ([2]; sham-operated rats, six weeks) was 1.68 ± 0.08 mm and the RV wt ([2]; sham-operated rats, six weeks) was 0.17 ± 0.01 g. The “Tissue Doppler Maximal velocity” value ([2]; sham-operated rats, six weeks) was 72.9 ± 8.6, the “Tissue Doppler Minimal velocity” value ([2]; sham-operated rats, six weeks) was 82.4 ± 6.1 and the “HR (heart rate)” value ([2]; sham-operated rats, six weeks) was 412 ± 11.
